This note sets out measurements from US20250019357A1, “[…] MORPHIC FORMS AND MIXTURES FOR THE TREATMENT OF MENTAL DISORDERS OR MENTAL ENHANCEMENT” (TACTOGEN INC, priority 2021, published 2025).

One data set relates to NET. The data set is described as follows: In vitro rat synaptosome norepinephrine release assay (Examples 9, 58). The class given is biochemical. Conditions: rat synaptosomes. The text has this:
(§1) FIG. 8C is a graph showing results from in vitro rat synaptosome dopamine and norepinephrine release assays. […] Previously presented serotonin results are included for comparison. […] Details and procedural information for this assay are described in Example 9. The x-axis is the log [dose] concentration measured in molar and the y-axis is the [^3H]-labeled 5-HT release measured in percent.
(§2) FIG. 178 is a graph showing results from in vitro rat synaptosome dopamine and norepinephrine release assays. […] Previously presented serotonin results are included for comparison. […] Details and procedural information for this assay are described in Example 58. The x-axis the log [dose] concentration measured in Molar units and the y-axis is the [^3H]-labeled 5-HT release measured in percent of maximum produced by the comparison releaser.

Another data set concerns the target 5-HT2A receptor (Homo sapiens (Human), UniProt P28223). The data set is described as follows: 5-HT2A agonist activity (Example 6). Type of data set: cell-based.
In data set [1] the target is hTAAR1 (human trace amine-associated receptor) (Homo sapiens (Human), UniProt Q96RJ0). The data set is described as follows: Interaction with hTAAR1. Conditions: concentrations up to 60 μM.
The target of data set [2] is T1, SERT (Rattus norvegicus (Rat), UniProt P31652). The data set is described as follows: In vitro rat synaptosome serotonin release (efflux) assay (Examples 9, 58). Type of data set: biochemical. Conditions: rat synaptosomes. The source says: FIG. 7B is a graph showing results from an in vitro rat synaptosome serotonin release assay. […] Details and procedural information for this assay are described in Example 9. The x-axis is the log [dose] concentration measured in molar and the y-axis is the [^3H]-labeled 5-HT release measured in percent.
FIG. 177 is a graph showing results from an in vitro rat synaptosome serotonin release assay. […] Details and procedural information for this assay are described in Example 58. The x-axis the log [dose] concentration measured in molar and the y-axis is the [^3H]-labeled 5-HT release measured in percent.

A further data set concerns Swiss CD1 mice. The data set is described as follows: Marble burying test. Type of data set: in vivo. To be noted: enantiomers given simultaneously.
Data set [3] can be described thus: Marble burying assay (Example 5). The class given is in vivo. To be noted: individual enantiomers vs the racemic mixture. The source says:
FIG. 2 is a chart showing results from the marble burying assay to measure decreased anxiety and neuroticism resulting from treatment with S-5-MAPB, R/S-5-MAPB, and R-5-MAPB. […] The y-axis gives the compound and dose. Error bars indicate 95% confidence intervals. Details and procedural information for this assay are described in Example 5.

For another data set, the target named is DAT (Rattus norvegicus (Rat), UniProt P23977). The data set is described as follows: In vitro rat synaptosome dopamine release assay (Examples 9, 58). Type of data set: biochemical. To be noted: rat synaptosomes.
Excerpt: as §1, §2

Data set [4] concerns norepinephrine transporter (NET). The data set is described as follows: Rat synaptosome NET release assay ([3H]MPP+). To be noted: rat synaptosomes.
Data set [5] addresses human 5-HT transporter (hSERT) (Homo sapiens (Human), UniProt P31645). The data set is described as follows: Human serotonin transporter  assay ([3H]imipramine radioligand, CHO cells). Type of data set: binding. Conditions: 2 nM [3H]imipramine, CHO cells; read-out: SERT IC50. How it is done: EXAMPLE 8: Human Serotonin Transporter (SERT, SLC6A4) Functional Antagonist Uptake Assay
Benzofuran derivatives were evaluated for inhibiting the human 5-HT transporter (hSERT) as expressed in CHO cells using an antagonist radioligand assay (Tatsumi, M. et al. (1999), Eur. J. Pharmacol., 368: 277-283). […] Test compounds were assayed in three trials at […], and 0.94868 μM.
EXAMPLE 57: Human Serotonin Transporter (SERT, SLC6A4) Functional Antagonist Uptake Assay

Data set [6] has as its target T1, SERT. The data set is described as follows: In vitro rat synaptosome serotonin uptake inhibition assay (Examples 9, 58). The class given is biochemical. To be noted: rat synaptosomes. The text has this:
FIG. 7A is a graph showing results from an in vitro rat synaptosome serotonin uptake inhibition assay. […] Details and procedural information for this assay are described in Example 9. The x-axis is the log [dose] concentration measured in molar and the y-axis is the [^3H]-labeled 5-HT reuptake measured in percent.
FIG. 176 is a graph showing results from an in vitro rat synaptosome serotonin uptake inhibition assay. […] Details and procedural information for this assay are described in Example 58. The x-axis the log [dose] concentration is measured in Molar units and the y-axis is the [^3H]-labeled 5-HT reuptake measured in percent of maximum produced by the comparison releaser.

Data set [7] has as its target dopamine transporter (DAT) (Rattus norvegicus (Rat), UniProt P23977). The data set is described as follows: Rat synaptosome DAT release assay ([3H]MPP+). Conditions: read-out: dopamine Emax (maximum dopamine increase relative to reference drug).
The target in data set [8] is serotonin (5-HT) transporter (SERT) (Rattus norvegicus (Rat), UniProt P31652). The data set is described as follows: Rat synaptosome SERT uptake inhibition assay ([3H]5-HT).
In data set [9] the target is Human Trace Amine Associated Receptor (hTAAR1) (Homo sapiens (Human), UniProt Q96RJ0). The data set is described as follows: hTAAR1 agonist assay (DiscoverX cAMP Hunter). Type of data set: cell-based. Conditions: seven concentrations between 0.05692 and 60 μM.
Data set [10] can be described thus: Human self-reported effects of non-racemic 5-MAPB (Good, Bad, Open ratings). To be noted: one healthy human, 54 mg total 5-MAPB HCl oral in two halves 1 hour apart; session maximum averaged (N=2, 13% S N=1). Type of data set: in vivo. How it is done:
The effects of non-racemic 5-MAPB HCl were tested by a healthy human individual at four different ratios of enantiomers plus the racemate as a control: • 54 mg S and 0 mg R (100% S) • 47 mg S and 7 mg R (about 87% S) • 36 mg S and 18 mg R (about 67% S) • 27 mg S and 27 mg R (about 50% S) • 7 mg S and 47 mg R (about 13% S)
Two trials were carried out at each ratio, except for 13% S where only one was conducted. Trials were at least 72 h apart.
5-MAPB HCl was dissolved in 1.5 ml distilled water and consumed in two halves, separated by 1 hour. Starting at 3 hours after administration, tablets of 250 mg ascorbic acid and capsules of 300 mg alpha lipoic acid were taken ad libitum (approximately every hour for a total of 4 administrations).
Measurements were made approximately every 2 hours until post 6 hours and the maximum ratings per session were analyzed. Additionally, an index of good drug effects versus emotional openness, calculated as (Open−Good)/(200, the theoretical maximum of Open+ Good), was constructed at each time point and the maximum analyzed. In healthy volunteers, Good Ratings can be considered a predictor of abuse liability. Accordingly, this index can be used as an indicator of the balance of a therapeutic effect (emotional openness) vs abuse liability.
Historic data of two trials 50 mg RS-5-MAPB Cl from the same individual were also included in the analysis for comparison.
Table 24 below indicates maximums for individual measures and for the open vs good index, averaged from all sessions (N=2, except for 13% S-5-MAPB where N=1). Qualitatively, all conditions produced subtle emotional effects, including decreases in negative affect and increases in stability of mood, without sensory distortion.

The next data set deals with human DAT (Homo sapiens (Human), UniProt Q01959). The data set is described as follows: hDAT release assay in CHO cells ([3H]dopamine). Conditions: read-out: EC50 DAT (Mean ± SEM), CHO cells expressing hDAT.
Another data set concerns Caco-2 cell line. The data set is described as follows: In vitro absorption assay, Caco-2 permeability. Type of data set: in vitro ADME. As for the experimental part: (§3) The permeability of 10 μM RS-5-MAPB in Caco-2, MDCKII, and MDR1-MDCKII cell line assays was assessed (Table 6). Both the AB and BA directions with and without the addition of a Pgp-specific inhibitor (verapamil), a MRP1 inhibitor (MK571), and an ATP-binding cassette subfamily G member 2 (ABCG2/BCRP) inhibitor (KG143) were measured. Trials were repeated twice, and values averaged.
In general terms: Caco-2 monolayers are a common model of the intestinal barrier.

The next data set addresses human SERT (Homo sapiens (Human), UniProt P31645). The data set is described as follows: hSERT release assay in CHO cells ([3H]serotonin). Conditions: read-out: EC50 SERT (Mean ± SEM), CHO cells expressing hSERT.
For another data set, the system named is MDR1-MDCKII cell line. The data set is described as follows: In vitro absorption assay, MDR1-MDCKII permeability. Type of data set: in vitro ADME. As for the experimental part:
as §3

The test system of the next data set is MDCKII cell line. The data set is described as follows: In vitro absorption assay, MDCKII permeability. The class given is in vitro ADME. To be noted: pH 7.4/7.4, 10 μM. As for the experimental part:
as §3

[11] abbreviates: Caco-2, pH 7.4/7.4 + KO143, 10 μM.
[12] abbreviates: Caco-2, pH 7.4/7.4 + verapamil, 10 μM.

Entries after “also recorded” stand apart in the source; their conditions may differ.

In general, IC50 refers to the concentration that inhibits the measured activity by half. One may read the Emax as the greatest response seen or fitted, relative to the assay's reference. One may read the EC50 as the midpoint of the concentration-response curve.

For `CCC(Cc1ccc2ccoc2c1)NC` (racemic) [Pattern 6-MBPB, 6-MBPB], in the data set on NET, the norepinephrine release result is reported as “only partial releaser of norepinephrine”. Besides, at 5-HT2A receptor, the 5-HT2A agonist activity result is given as “poor agonist of 5-HT2A”. Also, the “interactions with hTAAR1” value in [1] is reported as “lacks interactions with hTAAR1”. Besides, on SERT [2], the “[3H]-labeled 5-HT release” value was 5-HT releaser.

With `CNC(C)Cc1ccc2occc2c1` (centres unmarked) [Pattern 5-MAPB, 5-MAPB], in the data set with Swiss CD1 mice, the “marble burying: interaction between enantiomers” value is “strong non-additive interaction”. In addition, in data set [3], the “anxiolytic effect, percent of marbles left unburied versus placebo” value is reported as “non-additive effects of the two enantiomers”.

On to `CC[C@H](Cc1ccc2occc2c1)NC` [Pattern R-5-MBPB, R-5-MBPB], for which the “dopamine release / dopamine uptake” value on DAT is given as “reuptake inhibitors of dopamine; also recorded: dopamine uptake inhibitors”. Also, in data set [4], the “norepinephrine Emax” value worked out at 58%. For the same molecule, in the data set with NET, the norepinephrine release result is listed as “partial releasers of norepinephrine; also recorded: rapidly increases extracellular norepinephrine by stimulating release”. Moreover, on SERT [2], the “[3H]-labeled 5-HT release” value was “rapidly increases extracellular serotonin by stimulating release”. In data set [5], the IC50 was less than 950 nM. Also, the “[3H]-labeled 5-HT reuptake (serotonin uptake inhibition)” value at SERT [6] is reported as “rapidly increases extracellular serotonin by inhibiting reuptake”. Further, the Emax in data set [7] was roughly 25%.

`CC[C@H](Cc1ccc2ccoc2c1)NC` [Pattern R-6-MBPB, R-6-MBPB] came in with an IC50 in data set [8] of 702 ± 262 nM. Further, in [9], the “hTAAR1 maximum detected effects” value was determined as 0.9%. Besides, the Emax in data set [7] is roughly 25%.

In the case of `CC[C@@H](Cc1ccc2occc2c1)NC` [Pattern S-5-MBPB, S-5-MBPB], the norepinephrine release entry in the data set with NET is listed as “rapidly increases extracellular norepinephrine by stimulating release”. Further, at SERT [2], the “[3H]-labeled 5-HT release” value is reported as “rapidly increases extracellular serotonin by stimulating release”. Also, the IC50 in [5] was less than 950 nM. Moreover, on SERT [6], the “[3H]-labeled 5-HT reuptake (serotonin uptake inhibition)” value is “rapidly increases extracellular serotonin by inhibiting reuptake”.

Regarding `CC[C@@H](Cc1ccc2ccoc2c1)NC` [Pattern S-6-MBPB, S-6-MBPB], in [8], it took 217 ± 45.8 nM to reach half-maximal inhibition (IC50). The “hTAAR1 maximum detected effects” value in [9] worked out at 0.6%. In addition, the Emax in data set [7] was 72%.

On to `CNC(C)Cc1ccc2occc2c1` (centres unmarked) [RS-5-MAPB], for which the “Bad (bad drug effects), maximum 0-100 rating” value in [10] was 10%. Besides, the “Good (good drug effects), maximum 0-100 rating” value in data set [10] was 50%. Moreover, the “Open (emotional openness), maximum 0-100 rating” value in [10] was 45%. In addition, the EC50 came out at 459 ± 48 nM on human DAT and 90 ± 16 nM on human SERT. Also, the “absorption (conclusion of the permeability assays)” value in the data set on Caco-2 cell line (Caco-2, MDCKII and MDR1-MDCKII assays taken together) was “well absorbed”. Also, the “Permeability (Papp) A-B” value in the data set on Caco-2 cell line (setting [11]) is recorded as 75.3 10^−6 cm/s; with Caco-2 cell line (setting [12]) it was 37.6 10^−6 cm/s; in the data set on Caco-2 cell line (Caco-2, pH 7.4/7.4, 10 μM) it was 81 10^−6 cm/s; in the data set on MDR1-MDCKII cell line (pH 7.4/7.4 + verapamil, 10 μM), 42.8 10^−6 cm/s; with MDR1-MDCKII cell line (pH 7.4/7.4, 10 μM) it was 68.7 10^−6 cm/s; in the data set with MDCKII cell line, 82.1 10^−6 cm/s. Also, the “Permeability (Papp) B-A” value with Caco-2 cell line (setting [11]) is reported as 14 10^−6 cm/s; in the data set on Caco-2 cell line (setting [12]), 23 10^−6 cm/s; with Caco-2 cell line (Caco-2, pH 7.4/7.4, 10 μM), 29.1 10^−6 cm/s; in the data set on MDR1-MDCKII cell line (pH 7.4/7.4 + verapamil, 10 μM) it was 30.4 10^−6 cm/s; with MDR1-MDCKII cell line (pH 7.4/7.4, 10 μM) it was 20.5 10^−6 cm/s; in the data set on MDCKII cell line, 19.8 10^−6 cm/s.
